Measured values from article PMC5617480 (Oncotarget, 2017).

How the values were obtained:
BEL-7402 xenograft = assay: In vivo tumor growth inhibition, BEL-7402 xenograft model; conditions: BEL-7402 model; for inhibition in weight: p<0.05; for Average tumor weight (mean ± SD g) / Body weight (End) / RBW (%) (End) / Tumor volume (End): day 18
Procedure: In vivo anticancer efficacy of chiral platinum(II) complex 6 was evaluated using BEL-7404 and BEL-7402 xenograft mouse models. BEL-7404 and BEL-7402 cells were injected into nude mice. The mice were randomized into the control group, complex 6-treated group, and the positive control group (n = 6/group). When the volume of tumor was about 80 mm^3, complex 6 was given at a high (8 mg/kg) and low (4 mg/kg) dosage daily for 18 days, 5-FU (20 mg/kg every two days) and Cisplatin (2 mg/kg every two days) were used as a positive control in the BEL-7404 and BEL-7402 xenograft model, respectively.
To evaluate the vivo anticancer efficacy of complex 6, BEL-7404 and BEL-7402 xenograft mouse models (BALB/c nude mice, female for BEL-7404 model, 17–20 g, 6–7 weeks old; male for BEL-7402 model, 18-21 g, 6–7 weeks old) were used. Furthermore, animal used, maximum tolerated dose (MTD) analysis, acute toxicity studies and antitumor activity toward BEL-7404 and BEL-7402 models in vivo of complex 6, was similar to Chen reported.
H21T (3.5 pmol; 5’-G [T AG ] -3’), primer TS (18 pmol; tumor tissue were cut into about 1.5 mm3 small pieces, and […]
5’-[…]-3’), KCl (63 mM), then transplanted into the right flank of nude mice. When EGTA (1 mM), MgCl (1.5 mM), Tween-20 (0.005%), the average tumors reach a volume of about 80 mm3, the […]
primer NT (7.5 pmol; 5’-[…]-3’), mice were randomized into 4 groups (n=6), received the […]
TSNT internal control (0.01 amol; 5’-[…] following treatments: (a) control, received saline solvent; […]
-3’), primer (b) complex 6 at doses of 8.0 mg/kg daily (dissolve in […]
Cxext (22.5 pmol; 5’-[…] saline, iv); (c) complex 6 at doses of 4.0 mg/kg daily; […]
[…]-3’), Taq DNA polymerase (2.5 U), and (d) in BEL-7404 model, 5-fluorouracil (5-Fu) as positive telomerase (100 ng). Complexes or/and distilled water control at 20 mg/kg per two days (dissolve in saline, iv); was added ([…]). PCR was performed in an Eppendorf in BEL-7402 model, cisplatin as positive control at 2 mg/ Master cycler equipped with a hot lid and incubated for kg per two days (dissolve in saline, iv).
30.0 min at 30 °C, followed by 92 °C 30 s, 52 °C 30 s, The tumor volumes and body weight was monitored and 72°C 30 s for 30.0 cycles. After amplification, 8.0 every 3 days, The tumor volumes were estimated by […] loading buffer (5×TBE buffer, 0.2% xylene cyanol, measuring the two dimensions of the tumors using caliper and 0.2% bromophenol blue ) were added to the reaction. and calculated by the formula 1 [1, 6, 14]:
An […] of aliquot was loaded onto a nondenaturing V = (length × width2)/2(1) acrylamide gel (19:1, 16%) in 1×TBE buffer and resolved at 200.0 V for 1.0 h. Gels were fixed and then stained with On day 18, the mice were sacrificed, and tumor AgNO3 [8–11]. tissue were dissected out and weighted, tumor growth inhibition rate calculated using formulas 2 and 3 [1, 6,
In order to verify whether complexes 4–6 can TGI (%) = (ΔVc − ΔVt)/ΔVc×100%(2) directly regulate c-myc promoter (Pu27) and the IR(%) = (Wc − Wt)/Wc×100%(3) expression of hTRET in BEL-7404 cells, consequently Where ΔVt = tumor volumefinal −tumor volumeinitial inhibiting the telomerase function, we constructed EGFP for compound treated group, ΔVc=tumor volumefinal − and c-myc gene vectors according to those illustrated tumor volumeinitial for vehicle control group; Wt and Wc in Chalfie, Chen and He previous work. The detailed mean the average tumor weight of complex-treated and procedures for the construct of gene (c-myc and EGFP vehicle controlled group respectively. genes) vectors, and the method of transfection assays REFERENCES have been reported by Chalfie, Chen and He [1, 6, 9, 12,

Pu27 (c-myc) G4 = assay: FID assay; type: binding; conditions: for Pu27DC50: FID; for ctDNADC50/Pu27DC50: FID selectivity ratio
Procedure: We asked whether chiral platinum(II) complexes 4–6 have the ability to bind to G-quadruplex DNA. To address this, FRET assays, CD spectroscopy, G4-FID assays, and fluorescence titration analysis were performed. […] For G4-HTG21, the ^G4DC50 values of complexes 4–6 were 1.23, 1.26 and 0.99 μM, respectively; while, for G4-Pu27, the ^G4DC50 values were 1.01, 0.89, and 0.82 μM, respectively. In addition, the ^ctDNADC50/^G4DC50 ratio of the HTG21 and Pu27 G4s treated with complexes 4–6 was in the range of 50.54-90.65 and 71.56-110.67 folds, respectively. To further evaluate the binding ability of complexes 4–6 to Pu27 and HTG21G4s, CD spectroscopy and fluorescence titration analysis were performed. […] The quenching ability of complexes 4–6 to HTG21 and Pu27 G4 DNA fluorescence can be quantitatively estimated by their respective quenching constant (Kq), which was derived from the Stern-Volmer quenching equation. […] Finally, the selective binding of complexes 4–6 towards G4 DNA was analyzed by FRET-melting assays. […] In contrast, the ΔTm value for the F32T+H20M duplex DNA in the presence of complexes 4–6 was 1.18, 1.34, and 0.78 °C under the same conditions (Figure 4A). Altogether, our data indicated complexes 4–6, especially complex 6, is the best binder to G4 DNA, which caused DNA complex displaying the highest thermodynamic stability. […]
Supplementary Figure 20: FID results onto 4 (A), 5 (B) and 6 (C) toward DNA in sodium cacodylate buffer solution. […]

c-kit-2 = test system: c-kit-2; design: method as in earlier work; conditions: ref [1], cited from earlier work; for ctDNADC50/c-kit-2DC50: FID selectivity ratio; for c-kit-2DC50: FID
BEL-7402 cells = test system: BEL-7402 cells; design: method as in earlier work; conditions: BEL-7402, 48 h; ref [1]; cited from earlier work
A549 cells = test system: A549 cells; design: method as in earlier work; conditions: A549, 48 h; ref [1]; cited from earlier work
[1] = Cisplatin 2.0 mg/kg per two days iv

Compound: cis-[PtCl2(S-(–)-FOA)] [complex 6]
- inhibition in weight (BEL-7402 xenograft; 4 mg/kg daily for 18 days): 32.9%
- inhibition in weight (BEL-7402 xenograft; 8 mg/kg daily for 18 days): 47.1%
- Body weight (start) (BEL-7402 xenograft; 6 4.0 mg/kg daily iv): 19.1 ± 1.6 g
- Tumor volume (start) (BEL-7402 xenograft; 6 4.0 mg/kg daily iv): 78.7±58.4 mm3
- Average tumor weight (mean ± SD g) (BEL-7402 xenograft; 6 4.0 mg/kg daily iv): 0.84 ± 0.39 g
- Body weight (End) (BEL-7402 xenograft; 6 4.0 mg/kg daily iv): 22.3 ± 1.3 g
- RBW (%) (End) (BEL-7402 xenograft; 6 4.0 mg/kg daily iv): 117.7±6.3%
- Tumor volume (End) (BEL-7402 xenograft; 6 4.0 mg/kg daily iv): 648.8±242.1 mm3
- TGI (%) (BEL-7402 xenograft; 6 4.0 mg/kg daily iv, day 18, by tumor volume): 32.9%
- Inhibition of tumor growth (%) (BEL-7402 xenograft; 6 4.0 mg/kg daily iv, day 18, by tumor weight): 29.4%
- Body weight (start) (BEL-7402 xenograft; 6 8.0 mg/kg daily iv): 20.2 ± 0.7 g
- Tumor volume (start) (BEL-7402 xenograft; 6 8.0 mg/kg daily iv): 79.4±28.4 mm3
- Average tumor weight (mean ± SD g) (BEL-7402 xenograft; 6 8.0 mg/kg daily iv): 0.67 ± 0.46 g
- Body weight (End) (BEL-7402 xenograft; 6 8.0 mg/kg daily iv): 23.4 ± 1.4 g
- RBW (%) (End) (BEL-7402 xenograft; 6 8.0 mg/kg daily iv): 115.5±4.6%
- Tumor volume (End) (BEL-7402 xenograft; 6 8.0 mg/kg daily iv): 521.0±319.9 mm3
- Pu27DC50 (Pu27 (c-myc) G4): 0.82 µM
- ctDNADC50/Pu27DC50 (Pu27 (c-myc) G4): 110.67

Compound: N.N.[Cl][Pt][Cl] [cisplatin, reference compound]
- Tumor volume (start) (BEL-7402 xenograft; [1]): 78.6±37.7 mm3
- Average tumor weight (mean ± SD g) (BEL-7402 xenograft; [1]): 0.38 ± 0.18 g
- Tumor volume (End) (BEL-7402 xenograft; [1]): 329.9±155.2 mm3

Compound: O=C(NC[C@H](O)CO)c1cnc2c3c(cccc13)-c1ccccc1C2=O.[Cl-].[Cl-].[Pt+2] [ligand 3, S-(–)-FOA]
- ctDNADC50/c-kit-2DC50 (c-kit-2): 3.92
- c-kit-2DC50 (c-kit-2): 22.94 µM
- IC50 (BEL-7402 cells): 28.5 ± 2.4 µM
- IC50 (A549 cells): 20.4 ± 0.3 µM

Compound: cis-[PtCl2(R-(+)-FOA)] [complex 5]
- Pu27DC50 (Pu27 (c-myc) G4): 0.89 µM
- ctDNADC50/Pu27DC50 (Pu27 (c-myc) G4): 71.56

Compound: O=C(NC[C@@H](O)CO)c1cnc2c3c(cccc13)-c1ccccc1C2=O.[Cl-].[Cl-].[Pt+2] [ligand 2, R-(+)-FOA]
- ctDNADC50/c-kit-2DC50 (c-kit-2): < 0.40
- c-kit-2DC50 (c-kit-2): > 100 µM
- IC50 (BEL-7402 cells): 68.6 ± 0.8 µM
- IC50 (A549 cells): 24.1 ± 0.4 µM

Compound: cis-[PtCl2(R/S-(±)-FOA)] [complex 4]
- Pu27DC50 (Pu27 (c-myc) G4): 1.01 µM
- ctDNADC50/Pu27DC50 (Pu27 (c-myc) G4): 75.11

Compound: O=C(NCC(O)CO)c1cnc2c3c(cccc13)-c1ccccc1C2=O.[Cl-].[Cl-].[Pt+2] (racemic) [ligand 1, R/S-(±)-FOA]
- ctDNADC50/c-kit-2DC50 (c-kit-2): < 0.64
- c-kit-2DC50 (c-kit-2): > 100 µM
- IC50 (BEL-7402 cells): 30.4 ± 1.5 µM
- IC50 (A549 cells): 20.2 ± 0.5 µM
